ChEMBL document CHEMBL4828763, “Discovery of Potent and Selective CDK9 Degraders for Targeting Transcription Regulation in Triple-Negative Breast Cancer” (J Med Chem, 2021)
The source made the active and inactive calls. The calls are words filed in the database; no cut-off is given here.

Columns and labels:
Tumour [1] = assay: Reduction in MYC protein level in tumor of BALB/c mouse xenografted with human MDA-MB-231 cells at 2.5 mg/kg, intratumoral injection daily for 7 days by immunohistochemistry staining analysis relative to control; type: functional; details: MDA-MB-231, Neoplasm, 168 h, time 7 day
Tumour [2] = assay: Induction of CDK7 degradation in tumor of human MDA-MB-231 cells xenografted in BALB/c mouse model at 0.15 mM intratumoral injection measured after 16 hrs by Western blot analysis relative to control; type: functional, tissue-based; details: Neoplasm
[3] = target: Protein cereblon/Cyclin-dependent kinase 1 (Homo sapiens) (UniProt P06493+Q96SW2); assay: Protac activity at CRBN/CDK1 in human MDA-MB-231 cells assessed as induction of degradation of CDK1 at 100 to 500 nM incubated for 4 to 8 hrs by Western blot analysis; type: cell-based; details: dose 100-500 nM, time 4-8 hrs
Protein cereblon/Cyclin-dependent kinase 1 (Homo sapiens), sequence (P06493 whole entry, looked up): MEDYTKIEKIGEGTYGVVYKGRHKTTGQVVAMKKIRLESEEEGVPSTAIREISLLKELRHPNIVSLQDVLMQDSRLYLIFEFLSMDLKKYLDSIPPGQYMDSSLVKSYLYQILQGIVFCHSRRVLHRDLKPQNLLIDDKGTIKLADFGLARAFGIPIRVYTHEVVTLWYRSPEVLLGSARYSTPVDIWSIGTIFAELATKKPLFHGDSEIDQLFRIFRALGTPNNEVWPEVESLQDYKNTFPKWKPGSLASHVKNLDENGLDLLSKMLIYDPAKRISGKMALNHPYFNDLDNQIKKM
Protein cereblon/Cyclin-dependent kinase 1 (Homo sapiens), sequence (Q96SW2 whole entry, looked up): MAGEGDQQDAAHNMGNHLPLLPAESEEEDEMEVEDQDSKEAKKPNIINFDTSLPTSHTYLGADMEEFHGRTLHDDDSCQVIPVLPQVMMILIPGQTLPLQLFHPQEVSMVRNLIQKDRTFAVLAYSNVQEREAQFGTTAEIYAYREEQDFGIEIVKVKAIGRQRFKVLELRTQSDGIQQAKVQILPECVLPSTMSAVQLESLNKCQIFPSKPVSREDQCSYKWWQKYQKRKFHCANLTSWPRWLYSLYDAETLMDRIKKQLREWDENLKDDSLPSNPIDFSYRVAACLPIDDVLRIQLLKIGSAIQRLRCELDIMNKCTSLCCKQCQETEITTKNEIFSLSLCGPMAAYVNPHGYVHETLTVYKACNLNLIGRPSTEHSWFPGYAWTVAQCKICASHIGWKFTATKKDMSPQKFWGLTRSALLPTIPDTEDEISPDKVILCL

Tumour [4] = assay: Reduction in CDK9 protein level in tumor of BALB/c mouse xenografted with human MDA-MB-231 cells at 2.5 mg/kg, intratumoral injection daily for 7 days by immunohistochemistry staining analysis relative to control; type: functional; details: MDA-MB-231, Neoplasm, 168 h, time 7 day
[5] = target: Protein cereblon/Cyclin-dependent kinase 2 (Homo sapiens) (UniProt P24941+Q96SW2); assay: Protac activity at CRBN/CDK2 in human MDA-MB-231 cells assessed as induction of degradation of CDK2 at 100 to 500 nM incubated for 4 to 8 hrs by Western blot analysis; type: cell-based; details: dose 100-500 nM, time 4-8 hrs
MDA-MB-231 [6] = assay: Antitumor activity against human MDA-MB-231 cells xenografted in BALB/c mouse model assessed as induction of CDK9 degradation in tumor tissue at 5 mg/kg, intratumoral injection daily for 7 days by Western blot analysis relative to control; type: functional, organism-based; details: time 7.0 day
[7] = Toxicity in BALB/c mouse xenografted with human MDA-MB-231 cells assessed as body weight loss at 2.5 mg/kg, intratumoral injection daily for 7 days; type: organism-based; details: in vivo, other, 168 h, time 7 day
MDA-MB-231 [8] = assay: Growth inhibition of human MDA-MB-231 cells assessed as cell viability measured after 4 days by WST8 assay; type: functional, cell-based; details: MDA-MB-231, 96 h
[9] = target: Protein cereblon/Cyclin-dependent kinase 5 (Homo sapiens) (UniProt Q00535+Q96SW2); assay: Protac activity at CRBN/CDK5 in human MDA-MB-231 cells assessed as induction of degradation of CDK5 at 100 to 500 nM incubated for 4 to 8 hrs by Western blot analysis; type: cell-based; details: dose 100-500 nM, time 4-8 hrs
Protein cereblon/Cyclin-dependent kinase 5 (Homo sapiens), sequence (Q00535 whole entry, looked up): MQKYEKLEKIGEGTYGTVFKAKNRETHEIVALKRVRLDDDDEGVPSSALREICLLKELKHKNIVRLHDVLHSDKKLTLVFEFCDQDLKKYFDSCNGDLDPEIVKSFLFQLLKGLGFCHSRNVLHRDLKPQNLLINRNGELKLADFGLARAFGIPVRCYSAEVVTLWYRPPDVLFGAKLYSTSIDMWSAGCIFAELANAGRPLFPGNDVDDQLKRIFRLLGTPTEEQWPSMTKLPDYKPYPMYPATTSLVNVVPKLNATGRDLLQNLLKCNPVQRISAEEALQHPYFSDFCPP
Protein cereblon/Cyclin-dependent kinase 5 (Homo sapiens), sequence (Q96SW2 whole entry, looked up): as the sequence (Q96SW2 whole entry, looked up) above

MDA-MB-231 [10] = assay: Antitumor activity against human MDA-MB-231 cells xenografted in BALB/c mouse model assessed as decrease in tumor volume at 5 mg/kg, intratumoral injection daily for 7 days relative to control; type: functional; parameters: scale not given: the % may be the effect or the level left; details: time 7 day
Tumour [11] = assay: Effect on CDK7 protein level in tumor of BALB/c mouse xenografted with human MDA-MB-231 cells at 2.5 to 5 mg/kg, intratumoral injection daily for 7 days by Western blot analysis relative to control; type: functional, organism-based; details: Neoplasm, dose 2.5-5 mg/kg, time 7.0 day
[12] = Toxicity in BALB/c mouse xenografted with human MDA-MB-231 cells assessed as body weight loss at 5 mg/kg, intratumoral injection daily for 7 days; type: organism-based; details: in vivo, other, 168 h, time 7 day
Tumour [13] = assay: Reduction in MYC protein level in tumor of BALB/c mouse xenografted with human MDA-MB-231 cells at 5 mg/kg, intratumoral injection daily for 7 days by immunohistochemistry staining analysis relative to control; type: functional; details: MDA-MB-231, Neoplasm, 168 h, time 7 day
Tumour [14] = assay: Reduction in Ki-67 protein level in tumor of BALB/c mouse xenografted with human MDA-MB-231 cells at 5 mg/kg, intratumoral injection daily for 7 days by immunohistochemistry staining analysis relative to control; type: functional; details: MDA-MB-231, Neoplasm, 168 h, time 7 day
MDA-MB-231 [15] = assay: Antitumor activity against human MDA-MB-231 cells xenografted in BALB/c mouse model assessed as induction of CDK9 degradation in tumor tissue at 2.5 mg/kg, intratumoral injection daily for 7 days by Western blot analysis relative to control; type: functional, organism-based; details: time 7.0 day
[16] = target: Protein cereblon/Cyclin-dependent kinase 7 (Homo sapiens) (UniProt P50613+Q96SW2); assay: Protac activity at CRBN/CDK7 in human MDA-MB-231 cells assessed as induction of degradation of CDK7 at 100 to 500 nM incubated for 4 to 8 hrs by Western blot analysis; type: cell-based; details: dose 100-500 nM, time 4-8 hrs
Protein cereblon/Cyclin-dependent kinase 7 (Homo sapiens), sequence (P50613 whole entry, looked up): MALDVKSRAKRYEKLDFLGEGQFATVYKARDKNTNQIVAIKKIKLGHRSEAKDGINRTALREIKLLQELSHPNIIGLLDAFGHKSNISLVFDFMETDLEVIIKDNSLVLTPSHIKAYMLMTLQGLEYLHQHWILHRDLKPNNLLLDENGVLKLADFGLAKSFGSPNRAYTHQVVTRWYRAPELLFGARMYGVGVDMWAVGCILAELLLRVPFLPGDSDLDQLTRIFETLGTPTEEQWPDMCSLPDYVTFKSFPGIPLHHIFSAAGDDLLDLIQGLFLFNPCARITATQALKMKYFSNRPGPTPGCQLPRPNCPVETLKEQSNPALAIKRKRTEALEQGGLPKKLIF
Protein cereblon/Cyclin-dependent kinase 7 (Homo sapiens), sequence (Q96SW2 whole entry, looked up): as the sequence (Q96SW2 whole entry, looked up) above

Tumour [17] = assay: Reduction in Ki-67 protein level in tumor of BALB/c mouse xenografted with human MDA-MB-231 cells at 2.5 mg/kg, intratumoral injection daily for 7 days by immunohistochemistry staining analysis relative to control; type: functional; details: MDA-MB-231, Neoplasm, 168 h, time 7 day
[18] = target: Protein cereblon/Cyclin-dependent kinase 6 (Homo sapiens) (UniProt Q00534+Q96SW2); assay: Protac activity at CRBN/CDK6 in human MDA-MB-231 cells assessed as induction of degradation of CDK6 at 100 to 500 nM incubated for 4 to 8 hrs by Western blot analysis; type: cell-based; details: dose 100-500 nM, time 4-8 hrs
Protein cereblon/Cyclin-dependent kinase 6 (Homo sapiens), sequence (Q00534 whole entry, looked up): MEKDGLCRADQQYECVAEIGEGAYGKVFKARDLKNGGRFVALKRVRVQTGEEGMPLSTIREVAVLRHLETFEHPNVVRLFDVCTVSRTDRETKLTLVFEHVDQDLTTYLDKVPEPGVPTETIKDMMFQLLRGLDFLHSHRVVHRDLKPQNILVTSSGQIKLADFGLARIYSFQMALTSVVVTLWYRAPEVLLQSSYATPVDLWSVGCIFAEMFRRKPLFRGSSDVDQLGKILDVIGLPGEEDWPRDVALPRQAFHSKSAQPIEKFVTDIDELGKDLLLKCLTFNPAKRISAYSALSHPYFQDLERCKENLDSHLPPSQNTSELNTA
Protein cereblon/Cyclin-dependent kinase 6 (Homo sapiens), sequence (Q96SW2 whole entry, looked up): as the sequence (Q96SW2 whole entry, looked up) above

MDA-MB-231 [19] = assay: Antitumor activity against human MDA-MB-231 cells xenografted in BALB/c mouse model assessed as decrease in tumor volume at 2.5 mg/kg, intratumoral injection daily for 7 days relative to control; type: functional; parameters: scale not given: the % may be the effect or the level left; details: time 7 day
[20] = target: Protein cereblon/Cyclin-dependent kinase 9 (Homo sapiens) (UniProt P50750+Q96SW2); assay: Protac activity at CRBN/CDK9 in human MDA-MB-231 cells assessed as induction of degradation of CDK9 pretreated with MLN4924 at 500 nM incubated for 8 hrs by Western blot analysis; type: cell-based
Protein cereblon/Cyclin-dependent kinase 9 (Homo sapiens), sequence (P50750 whole entry, looked up): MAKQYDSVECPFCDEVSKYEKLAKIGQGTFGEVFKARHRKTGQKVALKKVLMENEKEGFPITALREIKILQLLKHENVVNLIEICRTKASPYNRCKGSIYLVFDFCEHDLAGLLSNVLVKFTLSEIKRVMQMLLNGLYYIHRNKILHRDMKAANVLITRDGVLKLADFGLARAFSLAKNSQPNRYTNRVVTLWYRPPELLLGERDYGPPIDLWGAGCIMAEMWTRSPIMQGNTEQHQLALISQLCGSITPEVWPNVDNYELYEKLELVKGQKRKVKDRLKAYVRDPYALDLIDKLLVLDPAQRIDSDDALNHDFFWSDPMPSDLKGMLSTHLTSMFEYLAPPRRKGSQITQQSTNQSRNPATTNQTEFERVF
Protein cereblon/Cyclin-dependent kinase 9 (Homo sapiens), sequence (Q96SW2 whole entry, looked up): as the sequence (Q96SW2 whole entry, looked up) above

Tumour [21] = assay: Reduction in CDK9 protein level in tumor of BALB/c mouse xenografted with human MDA-MB-231 cells at 5 mg/kg, intratumoral injection daily for 7 days by immunohistochemistry staining analysis relative to control; type: functional; details: MDA-MB-231, Neoplasm, 168 h, time 7 day
Tumour [22] = assay: Reduction in CDK7 protein level in tumor of BALB/c mouse xenografted with human MDA-MB-231 cells at 2.5 mg/kg, intratumoral injection daily for 7 days by immunohistochemistry staining analysis relative to control; type: functional; details: MDA-MB-231, Neoplasm, 168 h, time 7 day
[23] = target: Protein cereblon/Cyclin-dependent kinase 4 (Homo sapiens) (UniProt P11802+Q96SW2); assay: Protac activity at CRBN/CDK4 in human MDA-MB-231 cells assessed as induction of degradation of CDK4 at 100 to 500 nM incubated for 4 to 8 hrs by Western blot analysis; type: cell-based; details: dose 100-500 nM, time 4-8 hrs
Protein cereblon/Cyclin-dependent kinase 4 (Homo sapiens), sequence (P11802 2-303 limits assumed): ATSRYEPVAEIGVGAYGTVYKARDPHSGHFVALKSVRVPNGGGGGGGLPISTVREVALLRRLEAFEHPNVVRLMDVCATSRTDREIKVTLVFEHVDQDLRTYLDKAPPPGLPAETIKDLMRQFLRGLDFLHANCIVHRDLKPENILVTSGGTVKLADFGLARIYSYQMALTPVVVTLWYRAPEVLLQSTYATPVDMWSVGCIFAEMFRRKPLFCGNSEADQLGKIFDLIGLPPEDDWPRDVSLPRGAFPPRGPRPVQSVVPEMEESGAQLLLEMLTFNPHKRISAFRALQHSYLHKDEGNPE
Protein cereblon/Cyclin-dependent kinase 4 (Homo sapiens), sequence (Q96SW2 whole entry partner): as the sequence (Q96SW2 whole entry, looked up) above

[24] = target: Protein cereblon/Eukaryotic peptide chain release factor GTP-binding subunit ERF3A (Homo sapiens) (UniProt Q96SW2+P15170); assay: Protac activity at CRBN/GSPT1 in human MDA-MB-231 cells assessed as induction of degradation of GSPT1 incubated for 4 to 8 hrs by Western blot analysis; type: cell-based; details: time 4-8 hrs
Protein cereblon/Eukaryotic peptide chain release factor GTP-binding subunit ERF3A (Homo sapiens), sequence (P15170 whole entry, looked up): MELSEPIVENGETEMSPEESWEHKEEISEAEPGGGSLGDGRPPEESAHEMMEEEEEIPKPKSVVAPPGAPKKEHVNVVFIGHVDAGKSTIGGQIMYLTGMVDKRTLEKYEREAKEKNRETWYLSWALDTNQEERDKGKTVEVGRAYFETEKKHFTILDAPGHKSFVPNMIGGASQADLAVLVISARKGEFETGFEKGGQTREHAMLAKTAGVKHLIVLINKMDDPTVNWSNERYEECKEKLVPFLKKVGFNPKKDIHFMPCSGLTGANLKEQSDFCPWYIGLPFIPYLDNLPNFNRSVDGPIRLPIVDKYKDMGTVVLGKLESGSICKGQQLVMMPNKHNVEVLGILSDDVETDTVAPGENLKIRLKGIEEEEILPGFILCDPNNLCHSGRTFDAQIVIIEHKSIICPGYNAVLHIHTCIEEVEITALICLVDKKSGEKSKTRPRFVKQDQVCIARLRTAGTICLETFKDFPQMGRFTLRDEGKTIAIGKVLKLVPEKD
Protein cereblon/Eukaryotic peptide chain release factor GTP-binding subunit ERF3A (Homo sapiens), sequence (Q96SW2 whole entry, looked up): as the sequence (Q96SW2 whole entry, looked up) above

Tumour [25] = assay: Reduction in CDK7 protein level in tumor of BALB/c mouse xenografted with human MDA-MB-231 cells at 5 mg/kg, intratumoral injection daily for 7 days by immunohistochemistry staining analysis relative to control; type: functional; details: MDA-MB-231, Neoplasm, 168 h, time 7 day
BT-549 = assay: Growth inhibition of human BT-549 cells assessed as cell viability measured after 4 days by WST8 assay; type: functional, cell-based; details: BT-549, 96 h
Tumour [26] = assay: Induction of CDK9 degradation in tumor of human MDA-MB-231 cells xenografted in BALB/c mouse model at 0.15 mM intratumoral injection measured after 16 hrs by Western blot analysis relative to control; type: functional, Neoplasm
MDA-MB-468 = assay: Growth inhibition of human MDA-MB-468 cells assessed as cell viability measured after 4 days by WST8 assay; type: functional, cell-based; details: MDA-MB-468, 96 h

Activity [3]: inactive
Activity [5]: inactive
IC50 (MDA-MB-231 [8]): 3.9 µM
Activity [9]: inactive
Activity [16]: inactive
Activity [18]: inactive
Activity [20]: Active
Activity [23]: inactive
Activity [24]: inactive
IC50 (BT-549): 13.6 µM
IC50 (MDA-MB-468): 15 µM
Compound: CC[C@@H](CO)Nc1cc(NCc2ccc(NC(=O)N3CCN(CCCCCc4cccc5c4CN(C4CCC(=O)NC4=O)C5=O)CC3)cc2)n2ncc(C(C)C)c2n1 (stereo partly drawn)
inhibition in vivo at 2.5 mg/kg (Tumour [1]): 41%
Activity (Tumour [2]): inactive
inhibition in vivo at 2.5 mg/kg (Tumour [4]): 62.3%
Activity (MDA-MB-231 [6]): Active
Activity [7]: 12.8%
Activity (MDA-MB-231 [10]): 50%
Activity (Tumour [11]): inactive
Activity [12]: 13.1%
inhibition in vivo at 5 mg/kg (Tumour [13]): 76.7%
inhibition in vivo at 5 mg/kg (Tumour [14]): 69.7%
Activity (MDA-MB-231 [15]): Active
inhibition in vivo at 2.5 mg/kg (Tumour [17]): 32.8%
Activity (MDA-MB-231 [19]): 50%
inhibition in vivo at 5 mg/kg (Tumour [21]): 90.8%
inhibition in vivo at 2.5 mg/kg (Tumour [22]): 4%
inhibition in vivo at 5 mg/kg (Tumour [25]): 12.4%
Activity (Tumour [26]): 54%
